Earlier results as cited in US20110045550A1, “Fission Yeast Expressing Cytochrome P450 Reductase” (priority 2007, published 2011).

Legend:
[1] = target: human P-glycoprotein ATPases (ABCB1 subfamily) (Homo sapiens, UniProt P08183)
[2] = pH=8.5

Sequence of human P-glycoprotein ATPases (ABCB1 subfamily) (P08183 whole entry): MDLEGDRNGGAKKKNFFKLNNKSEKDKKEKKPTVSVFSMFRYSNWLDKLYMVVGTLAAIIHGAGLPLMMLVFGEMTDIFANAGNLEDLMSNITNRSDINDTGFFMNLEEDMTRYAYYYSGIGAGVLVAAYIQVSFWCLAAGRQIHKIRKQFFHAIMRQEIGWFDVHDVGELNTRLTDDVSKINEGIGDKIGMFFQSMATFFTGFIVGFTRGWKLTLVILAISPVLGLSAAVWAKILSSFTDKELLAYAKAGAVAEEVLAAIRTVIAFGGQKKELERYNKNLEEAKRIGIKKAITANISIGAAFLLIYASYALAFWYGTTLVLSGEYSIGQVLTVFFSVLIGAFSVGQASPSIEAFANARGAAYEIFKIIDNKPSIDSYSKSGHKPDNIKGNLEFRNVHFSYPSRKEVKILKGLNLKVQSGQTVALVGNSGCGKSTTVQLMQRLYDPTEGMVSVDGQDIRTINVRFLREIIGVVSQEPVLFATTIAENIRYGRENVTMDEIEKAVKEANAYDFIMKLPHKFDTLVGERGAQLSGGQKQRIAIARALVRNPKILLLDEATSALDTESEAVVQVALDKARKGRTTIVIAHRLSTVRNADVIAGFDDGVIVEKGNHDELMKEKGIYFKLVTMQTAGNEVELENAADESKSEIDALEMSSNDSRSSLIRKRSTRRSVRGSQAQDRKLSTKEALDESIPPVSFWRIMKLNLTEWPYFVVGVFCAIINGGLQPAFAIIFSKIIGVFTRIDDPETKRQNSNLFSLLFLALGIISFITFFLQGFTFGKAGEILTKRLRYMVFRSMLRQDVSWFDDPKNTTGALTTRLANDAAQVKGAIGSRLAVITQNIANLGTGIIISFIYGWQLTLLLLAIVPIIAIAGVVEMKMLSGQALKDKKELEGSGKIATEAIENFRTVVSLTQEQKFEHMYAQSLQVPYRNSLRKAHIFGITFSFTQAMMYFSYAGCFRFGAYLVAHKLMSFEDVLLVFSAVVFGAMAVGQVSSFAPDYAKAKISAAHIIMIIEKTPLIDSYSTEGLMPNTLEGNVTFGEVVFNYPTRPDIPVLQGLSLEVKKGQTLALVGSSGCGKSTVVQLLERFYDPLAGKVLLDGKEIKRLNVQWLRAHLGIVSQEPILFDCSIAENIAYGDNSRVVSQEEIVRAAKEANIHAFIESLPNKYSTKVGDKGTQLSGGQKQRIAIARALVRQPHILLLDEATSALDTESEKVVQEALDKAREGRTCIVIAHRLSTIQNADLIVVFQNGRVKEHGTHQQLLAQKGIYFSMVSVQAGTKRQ

SMILES	substrate for human P-glycoprotein [1]	solubility [2]
CC(NC(C)(C)C)C(=O)c1cccc(Cl)c1 (stereo not drawn) [bupropion]	weak substrate	
Cc1ncc2n1-c1ccc(Cl)cc1C(c1ccccc1F)=NC2 [midazolam]	very good substrate	around 150 μM
